Measured values taken from US9908899B2 (BIOMARIN PHARMACEUTICAL INC., priority 2011, dated 2018).
pIC50: −log10 of the molar value.

How the values were obtained:
HDAC3/NcoR2 = HDAC3/NcoR2 (Homo sapiens (Human), UniProt O15379); test: HDAC activity inhibition assay, HDAC3/NcoR2; type: biochemical
Experimental: (§1) The HDAC activity inhibition assay was performed as follows to determine the ability of a test compound to inhibit HDAC enzymatic activity. […] Following pre-incubation, Fluor-de-Lys™ substrate (Enzo Life Sciences, Plymouth Meeting, Pa., BML-KI104-0050) was added to a final concentration of 10 μM and plates were further incubated for 30 minutes at room temperature. […] IC50 values were calculated by using a sigmoidal dose-response (variable slope) equation in GraphPad Prism® 5 for Windows (GraphPad Software, La Jolla, Calif.).

HDAC2 = HDAC2 (Homo sapiens (Human), UniProt Q92769); test: HDAC activity inhibition assay, HDAC2; type: biochemical
Experimental: as §1

HDAC1 = HDAC1 (Homo sapiens (Human), UniProt Q13547); test: HDAC activity inhibition assay, HDAC1; type: biochemical
Experimental: as §1

Human Hepatocytes = test: Compound stability in hepatocytes; conditions: 5 μM
Experimental: To assess the stability and metabolism of RGFP compounds in hepatocytes. This assay was designed to evaluate the metabolism of RGFP compounds, following their incubation with human, monkey, dog and rat hepatocytes by monitoring either parent drug disappearance or metabolite appearance using HPLC.
Procedure: • Turn on the water-bath heater to 37° C. • Take out the KHB buffer and make sure it is at room temp before use • Prepare 2.5 mM concentration of RGFP compound in DMSO stock • Add 10 μL of above DMSO stock to 2490 μL KHB buffer; final concentration of RGFP compound will be 10 μM • Pre-warm 45 ml InVitro HT Medium to 37° C. in a sterile 50 ml conical tube • Add 1.0 mL Torpedo Antibiotic Mix per 45 mL InVitro HT medium • Transfer 13 mL of warm HT medium with Antibiotic Mix into a 15 mL conical tube. • Carefully remove the hepatocyte vials from liquid nitrogen (liquid phase). • Immediately immerse the vial into a 37° C. water bath. Shake gently until the ice melts entirely. […] Loosen the cell pellet by gently swirling the centrifuge tube • Transfer 100 μL of above solution to a different tube and add 900 μL of KHB buffer to count the cells • Determine the total cell count and the number of viable cells using the Trypan Blue exclusion method • Once you obtain the cell count, multiply the number by 10 (attributing to the dilution factor) • Now add required volume of KHB buffer to the tube containing hepatocytes such that the final count will be 2 million cells/mL • Dispense 50 μL of 2 million cells/ml to a 96 well plate and then add 50 μl of DMSO stock to respective wells (such that, the concentration of RGFP compounds is 5 μM and number of cells are 100000 in each well) • Place the plates on a shaker in a 37° C. incubator with 5% CO2 • Separate plates for each time point are advisable (Time points: 0 h, 1 h, 2 h, and 6 h) • After each time point, add 100 μL of quenching solution. • Quenching solution is an acetonitrile solution containing RGFP531 (10 μM) internal standard, 0.1% formic acid and phenylglyoxol (400 μM). The formic acid and phenylglyoxal is used for the identification and quantification of OPD as mentioned above. • Pipette up and down a few times to ensure a complete stop of reaction • Transfer all the solution into a 1.5 ml tube, vortex thoroughly, and centrifuge at 14000 RPM at 4° C. for 5 minutes to precipitate cell debris
Transfer the 150 μL of supernatant to vials for analysis using HPLC

[1] = Brain penetration studies; conditions: Table 4; mice; Cmax(brain)/Cmax(plasma)
Experimental: Test compounds were prepared at either 0.5 mg/ml or 5 mg/ml in 30% hydroxypropyl-β-cyclodextrin, 100 mM sodium acetate pH 5.5, 5% DMSO. C57/BL6/J mice were dosed s.c. at 5 mg/kg or 50 mg/kg, or i.v. at 5 mg/kg. Animals were euthanized at pre-dose, 5, 15, 30 min, 1, 2 and 4 hours post-dose and plasma and brain obtained. Three animals per dose per time points were used. The levels of compound in the plasma and brain were determined by standard LC/MS/MS methods. Brain/plasma ratio (BPR) was calculated as the ratio of the Cmax(brain)/Cmax(plasma).

Frataxin (FXN) mRNA = test: Effect of HDAC inhibitors on frataxin (FXN) mRNA expression in Friedreich's ataxia patient primary lymphocytes; type: cell-based, human; conditions: Homo sapiens, Lymphocyte; Friedreich's ataxia patient primary lymphocytes, 48 hours; read-out: FXN 2x (concentration required for a 2-fold increase in FXN mRNA)
Experimental: Blood is collected from Friedreich's ataxia patient donors into tubes containing the anti-coagulant EDTA. Primary lymphocytes are isolated using Lymphocyte Separation Medium (MP Biomedicals, Solon, Ohio) following the manufacturer's instructions and including a few modifications made by Repligen. After a final wash in Phosphate Buffered Saline (PBS), the cells are distributed into a 6-well cell culture plate in cell growth medium. The test HDAC inhibitor compound is added to cells in a dose escalating manner (usually concentrations range from 1 to 10 μM) and 0.1% DMSO is added to one well of cells as a no treatment control. Cells are incubated for 48 hours at 37° C. in a CO2 incubator; cell counts are taken using a Countess automated cell counter (Invitrogen, Carlsbad, Calif.). Equivalent numbers of cells for all treatment conditions are pelleted by centrifugation and resuspended in cell lysis buffer. Total RNA is isolated from approximately 1×10^6 primary lymphocytes using a RNeasy Mini Kit (Qiagen, Valencia, Calif.), following the manufacturer's instructions and including an optional on-column DNAse digestion step. The isolation is performed either manually or using the QIAcube (Qiagen, Valencia, Calif.), an instrument that automates much of the isolation procedure. The RNA yield and concentration is determined using a Nanodrop spectrophotometer (Thermo Fisher Scientific, Waltham, Mass.) and depending on the RNA concentration, one of two protocols is used to measure frataxin (FXN) transcript levels. For samples containing at least 15 ng/μL RNA a TaqMan® Probe-based (Applied Biosystems, Carlsbad, Calif.) qRT-PCR method is used, while for samples containing less than 15 ng/μL RNA a SYBR Green qRT-PCR method is used. In the TaqMan® Probe-based method specific primer/probe pairs for FXN and GAPDH are multiplexed in each reaction. In the SYBR Green method FXN and GAPDH are amplified in separate reactions. In both methods each RNA sample is analyzed in triplicate (preferably) or duplicate (minimally) using a one-step qRT-PCR master mix that contains all the components necessary for cDNA synthesis and PCR amplification in a single, continuous reaction. After cycling is complete, MxPro Software (Agilent Technologies, Santa Clara, Calif.) is used to analyze the collected data and determine the relative amount of FXN mRNA compared to a control sample. An adaptive baseline method is used for baseline correction whereby an algorithm automatically selects the appropriate baseline cycles for each well and each dye. An amplification-based threshold is set and the corresponding threshold cycle, or Ct, is obtained for calculating target concentration. The Ct values for each target gene (FXN and GAPDH) for each replicate series are averaged. The amount of FXN (or GAPDH) in the sample is determined as the relative quantity to the calibrator where the calibrator sample is assigned an arbitrary quantity of 1. The following equation is used: Relative quantity to the calibrator=2^−ΔCt where ΔCt=(Ct_gene)unknown−(Ct_gene)calibrator, gene is either FXN or GAPDH, calibrator is a DMSO control sample, and unknown is a HDACi treated sample. The relative quantity of FXN is normalized to cell number and RNA input. Data is reported in Tables 2 and 4 below, where the concentration required for a 2-fold increase in FXN mRNA is reported as A if less than 5 μM, B if between 5 and 10 μM, C if greater than 10 μM.

[2] = Acid stability determination; type: physicochemical; conditions: 100 μM in 0.01 M HCl, 50° C.
Experimental: A 100 μM solution of test compound was prepared by dilution of a 10 mM DMSO stock solution in a 0.01 M solution of HCl in deionized water. Immediately after mixing, an aliquot (100 μL) was sampled and analyzed by HPLC/UV. The area under the compound peak was determined and used as the time zero reference point. The remainder of the acid sample was incubated at 50° C. and samples were taken after 2, 4, and 24 hours of incubation. On a few occasions, samples were taken at 30 rather than 24 hours. These were analyzed by the same HPLC/UV method and the area of the peak corresponding to the test compound was measured. Percent remaining at a given time point was then calculated as the ratio of the area under the peak after incubation to that at time zero times 100. In those cases where a 30 hour time point was recorded, the percent remaining at 24 hours was obtained by interpolation of the percent remaining versus time curve assuming a unimolecular process, i.e. a monoexponential decay. Percent remaining after 24 hours incubation are presented in Tables 2 and 4 below, where A corresponds to more than 60%, B is between 40 and 60%, C covers 20 to 40% and D means less than 20%.

[3] = Table 1, 2 hours pre-incubation

HDAC3/NcoR2, sequence (O15379 whole entry): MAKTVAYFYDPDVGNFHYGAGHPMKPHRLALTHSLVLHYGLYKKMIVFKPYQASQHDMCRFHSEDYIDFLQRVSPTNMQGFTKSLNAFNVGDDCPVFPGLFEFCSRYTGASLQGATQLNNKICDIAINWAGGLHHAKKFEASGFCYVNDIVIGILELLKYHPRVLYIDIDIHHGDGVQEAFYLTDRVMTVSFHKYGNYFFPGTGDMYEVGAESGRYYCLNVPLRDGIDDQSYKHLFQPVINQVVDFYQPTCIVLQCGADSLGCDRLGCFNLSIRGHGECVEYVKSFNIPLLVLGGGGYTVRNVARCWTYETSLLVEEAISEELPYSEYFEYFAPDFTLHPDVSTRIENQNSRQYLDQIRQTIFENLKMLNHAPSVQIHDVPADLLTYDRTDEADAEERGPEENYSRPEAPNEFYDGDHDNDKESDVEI
HDAC3/NcoR2, sequence (Q9Y618 395-489 partner): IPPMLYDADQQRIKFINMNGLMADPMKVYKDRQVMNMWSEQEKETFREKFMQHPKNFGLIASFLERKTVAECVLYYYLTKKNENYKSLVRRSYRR
HDAC2, sequence (Q92769 whole entry): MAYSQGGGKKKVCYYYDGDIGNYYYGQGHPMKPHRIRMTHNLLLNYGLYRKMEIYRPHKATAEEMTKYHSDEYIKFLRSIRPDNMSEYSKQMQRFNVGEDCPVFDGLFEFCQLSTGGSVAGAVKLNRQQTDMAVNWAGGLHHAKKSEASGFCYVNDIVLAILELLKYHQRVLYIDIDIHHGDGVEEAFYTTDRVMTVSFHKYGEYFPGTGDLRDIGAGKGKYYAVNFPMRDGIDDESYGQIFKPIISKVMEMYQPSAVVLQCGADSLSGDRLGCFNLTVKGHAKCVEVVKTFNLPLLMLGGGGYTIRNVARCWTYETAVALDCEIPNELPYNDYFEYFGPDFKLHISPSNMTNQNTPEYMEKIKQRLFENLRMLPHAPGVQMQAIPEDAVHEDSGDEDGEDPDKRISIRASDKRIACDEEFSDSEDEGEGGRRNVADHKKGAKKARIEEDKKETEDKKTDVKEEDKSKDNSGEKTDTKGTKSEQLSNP
HDAC1, sequence (Q13547 whole entry): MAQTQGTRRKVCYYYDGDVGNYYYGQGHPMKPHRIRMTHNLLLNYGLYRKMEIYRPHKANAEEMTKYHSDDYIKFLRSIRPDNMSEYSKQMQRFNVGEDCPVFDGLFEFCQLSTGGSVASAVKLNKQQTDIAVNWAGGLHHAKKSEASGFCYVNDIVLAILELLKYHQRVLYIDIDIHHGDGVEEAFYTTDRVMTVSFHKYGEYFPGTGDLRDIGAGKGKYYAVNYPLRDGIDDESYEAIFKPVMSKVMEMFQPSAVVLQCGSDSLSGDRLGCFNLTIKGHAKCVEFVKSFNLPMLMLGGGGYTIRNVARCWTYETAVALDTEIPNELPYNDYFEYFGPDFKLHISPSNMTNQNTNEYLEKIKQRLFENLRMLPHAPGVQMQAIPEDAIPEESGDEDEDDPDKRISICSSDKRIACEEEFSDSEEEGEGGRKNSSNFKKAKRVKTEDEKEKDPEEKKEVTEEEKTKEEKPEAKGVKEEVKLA

SMILES	pIC50 (HDAC3/NcoR2; Table 4)	pIC50 (HDAC2; Table 4)	pIC50 (HDAC1; Table 4)	% left 6 h Hum (Human Hepatocytes)	BPR [1]	pIC50 (HDAC3/NcoR2; [3])	pIC50 (HDAC2; [3])	pIC50 (HDAC1; [3])	EC (2-fold FXN mRNA) (Frataxin (FXN) mRNA)	acid stability (percent remaining after 24 hours incubation) [2]
Cc1cccc(CN2CC(=Cc3ccc(C(=O)Nc4ccccc4N)cc3)C2)n1 [F16]	> 6.00	> 6.00	> 6.00	C (30%>C>10%)						
CN1C2CCC1CC(=Cc1ccc(C(=O)Nc3ccccc3N)cc1Cl)C2 [F8]	> 6.00	> 6.00	> 6.00		C (C is 0.2 to 0.5)					
Nc1ccccc1NC(=O)c1ccc(C=C2CCN(Cc3cccnc3)CC2)c(Cl)c1 [F7]	> 6.00	> 6.00	> 6.00	C (30%>C>10%)		> 6.00	> 6.00	> 6.00		
Nc1ccccc1NC(=O)c1ccc(CC2CN(Cc3ccc4cc[nH]c4c3)C2)cc1 [F4]						> 6.00		> 6.00	< 5 µM	B (B is between 40 and 60%)
CC(C)(O)CN1CC(=Cc2ccc(C(=O)Nc3ccccc3N)cc2)C1 [F19]	> 6.00	5.30 to 6.00	> 6.00	A (50%<A)						
Nc1ccccc1NC(=O)c1ccc(C=C2CN(CC3CC3)C2)c(Cl)c1 [F10]				B (50%>B>30%)	A (A is greater than 1)					
Nc1ccccc1NC(=O)c1ccc(C=C2CN(Cc3ccccc3)C2)cc1 [F17]	> 6.00	> 6.00	> 6.00	C (30%>C>10%)						
Cc1cccc(Cn2cc(/C=C/C(=O)Nc3ccccc3N)cn2)n1 [D6]							5.30 to 6.00	5.30 to 6.00	> 10 µM	
Nc1ccccc1NC(=O)c1ccc(C=C2CN(Cc3ccc4cc[nH]c4c3)C2)cc1 [F3]						> 6.00	> 6.00	> 6.00	< 5 µM	B (B is between 40 and 60%)
Nc1ccccc1NC(=O)c1ccc(C=C2COC2)c(Cl)c1 [F11]	> 6.00		> 6.00	C (30%>C>10%)	A (A is greater than 1)					
Nc1ccccc1NC(=O)/C=C/c1cnn(CCOCc2ccccc2)c1 [D14]						> 6.00	> 6.00	> 6.00	5 to 10 µM	B (B is between 40 and 60%)
Nc1ccccc1NC(=O)/C=C/c1cnn(CCc2ccccc2)c1 [D7]						> 6.00	5.30 to 6.00	> 6.00	5 to 10 µM	B (B is between 40 and 60%)
Nc1ccccc1NC(=O)/C=C/c1cnn(CCOc2ccccc2)c1 [D3, (E)-N-(2-aminophenyl)-3-(1-(2-phenoxyethyl)-1H-pyrazol-4-yl)acrylamide]						> 6.00	> 6.00	> 6.00	5 to 10 µM	A (A corresponds to more than 60%)
Nc1ccccc1NC(=O)/C=C/c1cnn(CC(F)(F)c2ccccc2)c1 [D10]						> 6.00	5.30 to 6.00	> 6.00	> 10 µM	
Nc1ccccc1NC(=O)c1ccc(C=C2CN(Cc3cccnc3)C2)cc1 [F18]	> 6.00	> 6.00	> 6.00	C (30%>C>10%)						
Nc1ccccc1NC(=O)/C=C/c1cnn(CCCCc2ccccc2)c1 [D9]						> 6.00	> 6.00	> 6.00	< 5 µM	A (A corresponds to more than 60%)
Nc1ccccc1NC(=O)c1ccc(C=C2CCN(CC3CC3)CC2)cc1 [F13]	> 6.00	> 6.00	> 6.00	B (50%>B>30%)	A (A is greater than 1)					
Nc1ccccc1NC(=O)/C=C/c1cnn(CCCc2ccccc2)c1 [D8]						> 6.00	> 6.00	> 6.00	> 10 µM	
Nc1ccccc1NC(=O)/C=C/c1cnn(CC/C=C/c2ccccc2)c1 [D11]						> 6.00	> 6.00	> 6.00	5 to 10 µM	
Nc1ccccc1NC(=O)c1ccc(C=C2CCN(Cc3cccnc3)CC2)cc1 [F2]						> 6.00	> 6.00	> 6.00	< 5 µM	B (B is between 40 and 60%)
Nc1ccccc1NC(=O)c1ccc(C=C2COC2)cc1F [F9]	> 6.00		> 6.00	IA (IA<10%)						
Nc1ccccc1NC(=O)/C=C/c1cnn(Cc2ccccc2)c1 [D4]						> 6.00	5.30 to 6.00	> 6.00	> 10 µM	A (A corresponds to more than 60%)
Nc1cc(F)ccc1NC(=O)c1ccc(C=C2CN(CC3CC3)C2)cc1 [F20]	> 6.00	5.30 to 6.00	5.30 to 6.00	A (50%<A)						
